{"source": "patent US20230183234A1", "about": "“IAP ANTAGONIST COMPOUNDS AND INTERMEDIATES AND METHODS FOR SYNTHESIZING THE SAME” (Otsuka Pharmaceutical Co., Ltd., priority 2020, published 2023)", "test": "Storage stability: level of aldehyde impurity of formula (XXV), HPLC peak at RRT 1.3", "assay_type": "physicochemical", "conditions": "stored at 2-8° C.", "procedure": "Based on experimental data, there is a correlation between the palladium content in the final end-product and drug substance of formula (XXIII) and the oxidative degradation of an aldehyde impurity. […] The degradation is manifested as an aldehyde impurity peak of formula (XXV) appearing at a relative retention time (RRT) of 1.3.\nThis impurity peak is found to be no more than 0.2% a/a when stored at 2-8° C., but higher levels are observed at elevated temperatures. The experimental results are depicted in FIGS. 6-7 and Tables 1, 4 and 5 for drug substance lots and corresponding formulations outlined in Tables 1-3.\nThe stability data and effect of palladium content on aldehyde impurity represented by the area percent of RRT 1.3 at a storage condition of 25° C. and 60% RH is provided in Table 4 and FIG. 6.\nThe effect of temperature on stability and the level of aldehyde impurity represented by the area percent of RRT 1.3 is provided in Table 5 and FIG. 7."}
{"smiles": "C[C@@H]1CN(CC(=O)N2CC(C)(C)c3nc(CO)c(Cc4ccc(F)cc4)cc32)[C@@H](CN2CCOC[C@H]2C)CN1.C[C@H](O)C(=O)O", "note": "[formula (XXIII)]", "values": [{"measurement": "impurity peak level at RRT 1.3 (aldehyde impurity of formula (XXV))", "value": "no more than 0.2 % a/a"}]}
